Experimental data: US8003648B2, “Heterocyclic GPR40 modulators” (Amgen Inc., priority 2006, dated 2011)

Target: T1, human GPR40 (Homo sapiens, UniProt O14842)
T1 construct: host or cells: CHO cells
Experiment: Cell-based aequorin assay using human GPR40
Settings: activation of human GPR40; CHO cells stably transfected with GPR40 and Aequorin; 0.01% HSA; aequorin luminescence
Protocol: Cell-based aequorin assays were employed to characterize the modulatory activity of compounds on the GPR40 signaling pathway. In an exemplary assay, CHO cells were stably transfected with both GPR40 and Aequorin (Euroscreen). Cells were detached from the tissue culture dish with 2 mL of trypsin (0.25% (w/v)). Trypsinization was halted with 28 mL of Hanks Buffered Salt Solution containing 20 mM Hepes (H/HBSS) and 0.01% fatty acid-free human serum albumin (HSA). Coelantrazine is added to 1 ug/mL, and the cells were incubated for 2 hours at room temperature. Compounds were dissolved in DMSO for preparation of 10 mM stock solutions. Compounds were diluted in H/HBSS containing 0.01% HSA. Serial dilutions of the test compounds were prepared to determine dose response.
Aequorin luminescence measurements were made using an EG&G Berthold 96-well luminometer, and the response was measured over a 20 second interval after cells and compounds were mixed. The maximum relative light units was plotted to determine dose response. The EC50 (effective concentration to reach 50% maximal response) was determined from the dose response plot.
Table 1 presents representative data (EC50 values) obtained for exemplary compounds of the invention for the activation of human GPR40. […]

T1 sequence (O14842 whole entry): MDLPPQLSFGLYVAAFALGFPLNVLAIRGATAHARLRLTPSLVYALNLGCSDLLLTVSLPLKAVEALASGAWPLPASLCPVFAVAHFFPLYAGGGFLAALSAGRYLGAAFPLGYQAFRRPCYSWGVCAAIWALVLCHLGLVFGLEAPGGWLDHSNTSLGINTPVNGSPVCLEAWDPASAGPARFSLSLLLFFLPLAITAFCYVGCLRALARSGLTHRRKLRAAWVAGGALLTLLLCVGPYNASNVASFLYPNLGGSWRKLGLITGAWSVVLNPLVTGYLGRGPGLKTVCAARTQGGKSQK

Structure (SMILES)	EC50
CC1(C)CCC=C1c1ccc(COc2ccc([C@H](CC(=O)O)c3ccon3)cc2)cc1OC(F)(F)F [Example 36, (S)-3-(4-(4-(5,5-Dimethylcyclopent-1-enyl)-3-(trifluoromethoxy)benzyloxy)phenyl)-3-(isoxazol-3-yl)propanoic acid]	100 to 1000 nM
CC(C)c1ccc(COc2ccc([C@H](CC(=O)O)c3ccon3)cc2)cc1OC(F)(F)F [Example 37, (S)-3-(4-(4-Isopropyl-3-(trifluoromethoxy)benzyloxy)phenyl)-3-(isoxazol-3-yl)propanoic acid]	10 to 100 nM
CC1(C)CCC=C1c1cc(COc2ccc([C@H](CC(=O)O)c3ccon3)cc2)ccc1OC(F)(F)F [Example 38, (S)-3-(4-(3-(5,5-Dimethylcyclopent-1-enyl)-4-(trifluoromethoxy)benzyloxy)phenyl)-3-(isoxazol-3-yl)propanoic acid]	10 to 100 nM
Cc1cc([C@@H](CC(=O)O)c2ccc(OCc3cccc(-c4ccc(C(F)(F)F)cc4)c3)cc2)no1 [Example 39, (S)-3-(4-(3-(4-(Trifluoromethyl)phenyl)benzyloxy)phenyl)-3-(5-methylisoxazol-3-yl)propanoic acid]	100 to 10000 nM
CC1(C)CCC(C)(C)c2cc(COc3ccc([C@H](CC(=O)O)c4ccon4)cc3)ccc21 [Example 40, (S)-3-(Isoxazol-3-yl)-3-(4-((5,5,8,8-tetramethyl-5,6,7,8-tetrahydronaphthalen-2-yl)methoxy)phenyl)propanoic acid]	10 to 100 nM
CC1(C)CCC(C)(C)c2cc(COc3ccc([C@@H](CC(=O)O)c4ccon4)cc3)ccc21 [Example 41, (R)-3-(Isoxazol-3-yl)-3-(4-((5,5,8,8-tetramethyl-5,6,7,8-tetrahydronaphthalen-2-yl)methoxy)phenyl)propanoic acid]	1000 to 10000 nM
CC1(C)CCC(C)(C)c2cc(COc3ccc(C(CC(=O)O)C4=NOCC4)cc3)ccc21 (stereo not shown) [Example 42, 3-(4,5-Dihydroisoxazol-3-yl)-3-(4-((5,5,8,8-tetramethyl-5,6,7,8-tetrahydronaphthalen-2-yl)methoxy)phenyl)propanoic acid]	100 to 1000 nM
CCOCCOc1cc(COc2ccc([C@H](CC(=O)O)c3ccon3)cc2)c(Br)cc1C(C)(C)C [Example 46, (S)-3-(4-(2-Bromo-4-tert-butyl-5-(2-ethoxyethoxy)benzyloxy)phenyl)-3-(isoxazol-3-yl)propanoic acid]	100 to 1000 nM
O=C(O)C[C@@H](c1ccc(OCCOc2ccc(C(F)(F)F)cc2)cc1)c1ccon1 [Example 47, (S)-3-(Isoxazol-3-yl)-3-(4-(2-(4-(trifluoromethyl)phenoxy)ethoxy)phenyl)propanoic acid]	100 to 1000 nM
O=C(O)C[C@@H](c1ccc(OCCCOc2ccc(C(F)(F)F)cc2)cc1)c1ccon1 [Example 48]	100 to 1000 nM
O=C(O)C[C@@H](c1ccc(OCCCCOc2ccc(C(F)(F)F)cc2)cc1)c1ccon1 [Example 49]	100 to 1000 nM
Cc1oc(-c2ccc(C(F)(F)F)cc2)nc1COc1ccc([C@H](CC(=O)O)c2ccon2)cc1 [Example 50, (S)-3-(Isoxazol-3-yl)-3-(4-((5-methyl-2-(4-(trifluoromethyl)phenyl)oxazol-4-yl)methoxy)phenyl)propanoic acid]	100 to 1000 nM
Cc1nc(-c2ccc(C(F)(F)F)cc2)oc1COc1ccc([C@H](CC(=O)O)c2ccon2)cc1 [Example 51, (S)-3-(Isoxazol-3-yl)-3-(4-((4-methyl-2-(4-(trifluoromethyl)phenyl)oxazol-5-yl)methoxy)phenyl)propanoic acid]	100 to 1000 nM
Cc1oc(-c2ccc(C(F)(F)F)cc2)cc1COc1ccc([C@H](CC(=O)O)c2ccon2)cc1 [Example 52, (S)-3-(Isoxazol-3-yl)-3-(4-((2-methyl-5-(4-(trifluoromethyl)phenyl)furan-3-yl)methoxy)phenyl)propanoic acid]	10 to 100 nM
Cc1oc(-c2ccc(Cl)cc2)cc1COc1ccc([C@H](CC(=O)O)c2ccon2)cc1 [Example 53, (S)-3-(4-((5-(4-Chlorophenyl)-2-methylfuran-3-yl)methoxy)phenyl)-3-(isoxazol-3-yl)propanoic acid]	10 to 100 nM
CCN(CC)Cc1ccc(-c2nc(C)c(COc3ccc([C@H](CC(=O)O)c4ccon4)cc3)s2)cc1 [Example 54, (S)-3-(4-((2-(4-((Diethylamino)methyl)phenyl)-4-methylthiazol-5-yl)methoxy)phenyl)-3-(isoxazol-3-yl)propanoic acid]	1000 to 10000 nM
Cc1nc(-c2ccc(CCCO)cc2)sc1COc1ccc([C@H](CC(=O)O)c2ccon2)cc1 [Example 55, (S)-3-(4-((2-(4-(3-Hydroxypropyl)phenyl)-4-methylthiazol-5-yl)methoxy)phenyl)-3-(isoxazol-3-yl)propanoic acid]	1000 to 10000 nM
CCCCc1ccc(-c2cc(COc3ccc([C@H](CC(=O)O)c4ccon4)cc3)c(C)o2)cc1 [Example 56]	100 to 1000 nM
Cc1nc(-c2ccc(Cl)cc2)sc1COc1ccc([C@H](CC(=O)O)c2ccon2)cc1 [Example 57, (S)-3-(Isoxazol-3-yl)-3-(4-((4-methyl-2-(4-chlorophenyl)thiazol-5-yl)methoxy)phenyl)propanoic acid]	10 to 100 nM
Cc1ccc(-c2nc(C)c(COc3ccc([C@H](CC(=O)O)c4ccon4)cc3)s2)cc1 [Example 58, (S)-3-(Isoxazol-3-yl)-3-(4-((4-methyl-2-(4-methylphenyl)thiazol-5-yl)methoxy)phenyl)propanoic acid]	10 to 100 nM
Cc1ccc(-c2nc(C)c(COc3ccc([C@@H](CC(=O)O)c4ccon4)cc3)s2)cc1 [Example 59, (R)-3-(Isoxazol-3-yl)-3-(4-((4-methyl-2-(4-methylphenyl)thiazol-5-yl)methoxy)phenyl)propanoic acid]	1000 to 10000 nM
CCCCc1ccc(-c2ccc(COc3ccc([C@H](CC(=O)O)c4ccon4)cc3)s2)cc1 [Example 60, (3S)-3-(4-(((5-(4-butylphenyl)-2-thienyl)methyl)oxy)phenyl)-3-(3-isoxazolyl)propanoic acid]	10 to 100 nM

Structure (SMILES)	EC50
O=C(O)C[C@@H](c1ccc(OCc2ccc(-c3ccc(C(F)(F)F)cc3)s2)cc1)c1ccon1 [Example 61, (3S)-3-(3-Isoxazolyl)-3-(4-(((5-(4-(trifluoromethyl)phenyl)-2-thienyl)methyl)oxy)phenyl)propanoic acid]	10 to 100 nM
Cc1cc(-c2ccc(C(F)(F)F)cc2)sc1COc1ccc([C@H](CC(=O)O)c2ccon2)cc1 [Example 62, (3S)-3-(3-Isoxazolyl)-3-(4-(((3-methyl-5-(4-(trifluoromethyl)phenyl)-2-thienyl)methyl)oxy)phenyl)propanoic acid]	10 to 100 nM
O=C(O)C[C@@H](c1ccc(OCc2noc(-c3ccccc3)n2)cc1)c1ccon1 [Example 63]	1000 to 10000 nM
COc1ccccc1-c1nc(COc2ccc([C@H](CC(=O)O)c3ccon3)cc2)no1 [Example 64]	1000 to 10000 nM
O=C(O)C[C@@H](c1ccc(OCc2noc(-c3ccc(C(F)(F)F)cc3)n2)cc1)c1ccon1 [Example 65]	1000 to 10000 nM
O=C(O)C[C@@H](c1ccc(OCc2noc(-c3cccc(C(F)(F)F)c3)n2)cc1)c1ccon1 [Example 66]	1000 to 10000 nM
O=C(O)C[C@@H](c1ccc(OCc2nc(-c3ccccc3)no2)cc1)c1ccon1 [Example 67]	1000 to 10000 nM
O=C(O)C[C@@H](c1ccc(OCc2nc(-c3cccc(C(F)(F)F)c3)no2)cc1)c1ccon1 [Example 68]	1000 to 10000 nM
O=C(O)C[C@@H](c1ccc(OCc2nc(-c3ccc(Cl)cc3)no2)cc1)c1ccon1 [Example 69]	1000 to 10000 nM
CC(C)(C)c1ccc(-c2noc(COc3ccc([C@H](CC(=O)O)c4ccon4)cc3)n2)cc1 [Example 70]	100 to 1000 nM
O=C(O)C[C@@H](c1ccc(OCc2nc(-c3c(Cl)cccc3Cl)no2)cc1)c1ccon1 [Example 71]	1000 to 10000 nM
Cc1nc(-c2cccc(C(F)(F)F)c2)sc1COc1ccc([C@H](CC(=O)O)c2ccon2)cc1 [Example 72, (3S)-3-(Isoxazol-3-yl)-3-(4-((4-methyl-2-(3-(trifluoromethyl)phenyl)thiazol-5-yl)methoxy)phenyl)propanoic acid]	10 to 100 nM
CCCCOc1ccc(-c2nc(C)c(COc3ccc([C@H](CC(=O)O)c4ccon4)cc3)s2)cc1F [Example 75, (3S)-3-(4-((2-(4-Butoxy-3-fluorophenyl)-4-methylthiazol-5-yl)methoxy)phenyl)-3-(isoxazol-3-yl)propanoic acid]	10 to 100 nM
Cc1nc(-c2ccc(C(C)(C)C)cc2)sc1COc1ccc([C@H](CC(=O)O)c2ccon2)cc1 [Example 76]	10 to 100 nM
CCCCc1ccc(-c2nc(C)c(COc3ccc([C@H](CC(=O)O)c4ccon4)cc3)s2)cc1 [Example 77]	10 to 100 nM
Cc1nc(-c2ccc(CC(C)C)cc2)sc1COc1ccc([C@H](CC(=O)O)c2ccon2)cc1 [Example 78]	10 to 100 nM
CCCCOc1ccc(-c2nc(C)c(COc3ccc([C@H](CC(=O)O)c4ccon4)cc3)s2)cc1Cl [Example 79]	10 to 100 nM
CCCOc1c(C)cc(-c2nc(C)c(COc3ccc([C@H](CC(=O)O)c4ccon4)cc3)s2)cc1C [Example 80]	10 to 100 nM
Cc1nc(-c2ccc(OC(C)C)c(Cl)c2)sc1COc1ccc([C@H](CC(=O)O)c2ccon2)cc1 [Example 81]	10 to 100 nM
CC12CCC(c3nc(COc4ccc([C@H](CC(=O)O)c5ccon5)cc4)cnc31)C2(C)C (stereo partly shown) [Example 82]	1000 to 10000 nM
CC12CCC(c3ncc(COc4ccc([C@H](CC(=O)O)c5ccon5)cc4)nc31)C2(C)C (stereo partly shown) [Example 83]	1000 to 10000 nM
